Molecules are shown by their SMILES.

The test system of this assay is STAT3 phosphorylation. Put plainly: IL-6-induced STAT3 phosphorylation in JMAR cells (Western blot). The format is cell-based, human. How it is done: JMAR cells (2×10^6 cells) were treated with IL-6 (10 ng/ml) for the indicated time and whole cell extracts were prepared. These extracts (30 μg) were resolved on 7.5% SDS-PAGE, electrotransferred to a nitrocellulose membrane and probed for p-STAT3 (upper panel) and stripped and re-probed for STAT3 (lower panel). […] JMAR cells were pretreated with curcumin (50 μM) for indicated durations and stimulated with IL-6 (10 ng/ml) for 10 mins and whole cell extract prepared and probed as mentioned earlier.
JMAR cells were treated with IL-6 for different durations and the levels of p-STAT3 and STAT3 were examined. Treatment with IL-6 as early as 5 mins induced STAT3 phosphorylation in JMAR cells (FIG. 14A, upper panel). However, STAT3 levels were unaffected (FIG. 14A, lower panel).
Further, since IL-6 induced STAT3 phosphorylation in JMAR cells, the ability of curcumin to inhibit this STAT3 phosphorylation was also examined. JMAR cells were pretreated with curcumin for different durations and stimulated with IL-6 for 10 minutes. Both the status of p-STAT3 and STAT3 were determined in the whole cell extracts of these cells. Treatment with curcumin for as early as 30 minutes led to decline in the phosphorylation of STAT3 which declined further with increased exposure to curcumin. Exposure to curcumin for 2 hours inhibited STAT3 phosphorylation in JMAR cells (FIG. 14B, upper panel). The STAT3 levels were unaffected by this treatment (FIG. 14B, lower panel).

The mark [1] stands for this setting: 50 μM curcumin, IL-6 10 ng/ml 10 min.

For the molecule `COc1cc(/C=C/C(=O)CC(=O)/C=C/c2ccc(O)c(OC)c2)ccc1O` [curcumin, diferuloylmethane], under setting [1], the “earliest treatment time leading to decline of IL-6-induced STAT3 phosphorylation” value worked out at 30 min and the “exposure that inhibited IL-6-induced STAT3 phosphorylation” value worked out at 2 h. The STAT3 levels entry (curcumin pretreatment plus IL-6) is on record as “unaffected”.

The values are drawn from patent publication US20050049299A1, “Selective inhibitors of stat-3 activation and uses thereof” (priority 2003, published 2005).
